From the supplement of paper PMC12370961

Experiments:
Test in all cases: differential drug sensitivity score (dDSS) relative to sarcoma reference cohort mean DSS (DSS units (0-100 scale difference)); higher = more selective sensitivity than reference sarcomas
Conditions in all cases: exposure time: 72 h; concentration range: 10-10000 nM
ES-ZH009 = tested on: ES-ZH009 (patient-derived Ewing sarcoma tumoroid)
Description: (§1)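 Drug response profiling of patient-derived Ewing sarcoma and CIC::DUX4 sarcoma tumoroid models (or cells tested directly after isolation from the tumor, 'direct'). The DSS is the normalised AUC (0-100); dDSS is the sample DSS minus the mean DSS of a 34-sarcoma reference cohort profiled in the same lab.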

ES-ZH016 direct = tested on: ES-ZH016 direct (Ewing sarcoma cells right after isolation)
Description: as §1

CDS-ZH001-2 = tested on: CDS-ZH001-2 (patient-derived CIC-DUX4 sarcoma tumoroid)
Description: as §1

CDS-ZH002 = tested on: CDS-ZH002 (patient-derived CIC-DUX4 sarcoma tumoroid)
Description: as §1

ES-ZH004 = tested on: ES-ZH004 (patient-derived Ewing sarcoma tumoroid)
Description: as §1

ES-ZH008 = tested on: ES-ZH008 (patient-derived Ewing sarcoma tumoroid)
Description: as §1

ES-ZH002 = tested on: ES-ZH002 (patient-derived Ewing sarcoma tumoroid)
Description: as §1

ES-ZH016 = tested on: ES-ZH016 (patient-derived Ewing sarcoma tumoroid)
Description: as §1

ES-ZH007 = tested on: ES-ZH007 (patient-derived Ewing sarcoma tumoroid)
Description: as §1

ES-ZH001 = tested on: ES-ZH001 (patient-derived Ewing sarcoma tumoroid)
Description: as §1

CDS-ZH003 = tested on: CDS-ZH003 (patient-derived CIC-DUX4 sarcoma tumoroid)
Description: as §1

CDS-ZH002 direct = tested on: CDS-ZH002 direct (CIC-DUX4 sarcoma cells right after isolation)
Description: as §1

CDS-ZH001 = tested on: CDS-ZH001 (patient-derived CIC-DUX4 sarcoma tumoroid)
Description: as §1

Nc1ncn([C@@H]2O[C@H](CO)[C@@H](O)[C@H]2O)c(=O)n1 [Azacitidine]
differential drug sensitivity score (ES-ZH009): 0.6 | differential drug sensitivity score (ES-ZH016 direct): -1.2 | differential drug sensitivity score (CDS-ZH001-2): -0.6 | differential drug sensitivity score (CDS-ZH002): 0.2 | differential drug sensitivity score (ES-ZH004): -1.2 | differential drug sensitivity score (ES-ZH008): -1.2 | differential drug sensitivity score (ES-ZH002): 4.4 | differential drug sensitivity score (ES-ZH016): -1.2 | differential drug sensitivity score (ES-ZH007): -1.2 | differential drug sensitivity score (ES-ZH001): -1.2 | differential drug sensitivity score (CDS-ZH003): -1.2 | differential drug sensitivity score (CDS-ZH002 direct): 0.2 | differential drug sensitivity score (CDS-ZH001): -0.4

O=C(CCCCCCC(=O)Nc1ccccc1)NO [Vorinostat]
differential drug sensitivity score (ES-ZH009): 6.6 | differential drug sensitivity score (ES-ZH016 direct): 5.3 | differential drug sensitivity score (CDS-ZH001-2): 0.5 | differential drug sensitivity score (CDS-ZH002): -3.6 | differential drug sensitivity score (ES-ZH004): 7.3 | differential drug sensitivity score (ES-ZH008): 5.1 | differential drug sensitivity score (ES-ZH002): 8 | differential drug sensitivity score (ES-ZH016): -0.7 | differential drug sensitivity score (ES-ZH007): 6.3 | differential drug sensitivity score (ES-ZH001): 9.5 | differential drug sensitivity score (CDS-ZH003): 3.3 | differential drug sensitivity score (CDS-ZH002 direct): -0.2 | differential drug sensitivity score (CDS-ZH001): -4

CCN(c1cc(C#CCN2CCOCC2)cc(C(=O)NCc2c(C)cc(C)[nH]c2=O)c1C)[C@H]1CC[C@H](N(C)CCOC)CC1
differential drug sensitivity score (ES-ZH009): -1.4 | differential drug sensitivity score (ES-ZH016 direct): -1.4 | differential drug sensitivity score (CDS-ZH001-2): -0.9 | differential drug sensitivity score (CDS-ZH002): -0.7 | differential drug sensitivity score (ES-ZH004): -1.4 | differential drug sensitivity score (ES-ZH008): 0.2 | differential drug sensitivity score (ES-ZH002): 2.8 | differential drug sensitivity score (ES-ZH016): -1.4 | differential drug sensitivity score (ES-ZH007): -1.4 | differential drug sensitivity score (ES-ZH001): 3.1 | differential drug sensitivity score (CDS-ZH003): -1.4 | differential drug sensitivity score (CDS-ZH002 direct): -1.2 | differential drug sensitivity score (CDS-ZH001): -1.4

O=C1c2c(O)ccc(O)c2C(=O)c2c(NCCNCCO)ccc(NCCNCCO)c21 [Mitoxantrone]
differential drug sensitivity score (ES-ZH009): 10 | differential drug sensitivity score (ES-ZH016 direct): 11.9 | differential drug sensitivity score (CDS-ZH001-2): 9.1 | differential drug sensitivity score (CDS-ZH002): 3.5 | differential drug sensitivity score (ES-ZH004): 5.1 | differential drug sensitivity score (ES-ZH008): 9.8 | differential drug sensitivity score (ES-ZH002): 21.8 | differential drug sensitivity score (ES-ZH016): 14.7 | differential drug sensitivity score (ES-ZH007): -1.8 | differential drug sensitivity score (ES-ZH001): 10.9 | differential drug sensitivity score (CDS-ZH003): -2.1 | differential drug sensitivity score (CDS-ZH002 direct): 0.4 | differential drug sensitivity score (CDS-ZH001): 5.1

O=C(NCc1cccc(O)c1)Nc1nc(-c2ccncc2)cs1 [RKI1447]
differential drug sensitivity score (ES-ZH009): 4.8 | differential drug sensitivity score (ES-ZH016 direct): -1 | differential drug sensitivity score (CDS-ZH001-2): -1 | differential drug sensitivity score (CDS-ZH002): -1 | differential drug sensitivity score (ES-ZH004): -0.2 | differential drug sensitivity score (ES-ZH008): -1.2 | differential drug sensitivity score (ES-ZH002): 6.9 | differential drug sensitivity score (ES-ZH016): 0.4 | differential drug sensitivity score (ES-ZH007): -1.1 | differential drug sensitivity score (ES-ZH001): -1.2 | differential drug sensitivity score (CDS-ZH003): -0.9 | differential drug sensitivity score (CDS-ZH002 direct): -1.2 | differential drug sensitivity score (CDS-ZH001): -0.6

Cc1nc(Nc2n[nH]c3c2CN(C(=O)N[C@H](CN(C)C)c2ccccc2)C3(C)C)c2sccc2n1
differential drug sensitivity score (ES-ZH009): 12.7 | differential drug sensitivity score (ES-ZH016 direct): -4.7 | differential drug sensitivity score (CDS-ZH001-2): 5.3 | differential drug sensitivity score (CDS-ZH002): 0 | differential drug sensitivity score (ES-ZH004): 9.2 | differential drug sensitivity score (ES-ZH008): 4.9 | differential drug sensitivity score (ES-ZH002): 15.4 | differential drug sensitivity score (ES-ZH016): 0.7 | differential drug sensitivity score (ES-ZH007): 17.9 | differential drug sensitivity score (ES-ZH001): 5.3 | differential drug sensitivity score (CDS-ZH003): -5.2 | differential drug sensitivity score (CDS-ZH002 direct): 3.6 | differential drug sensitivity score (CDS-ZH001): 5.9

CN(C)/N=N/c1[nH]cnc1C(N)=O [Dacarbazine]
differential drug sensitivity score (ES-ZH009): 0.9 | differential drug sensitivity score (ES-ZH016 direct): -0.8 | differential drug sensitivity score (CDS-ZH001-2): -0.7 | differential drug sensitivity score (CDS-ZH002): -0.8 | differential drug sensitivity score (ES-ZH004): 0.1 | differential drug sensitivity score (ES-ZH008): 2.8 | differential drug sensitivity score (ES-ZH002): 7.5 | differential drug sensitivity score (ES-ZH016): -0.8 | differential drug sensitivity score (ES-ZH007): -0.8 | differential drug sensitivity score (ES-ZH001): -0.7 | differential drug sensitivity score (CDS-ZH003): -0.7 | differential drug sensitivity score (CDS-ZH002 direct): -0.8 | differential drug sensitivity score (CDS-ZH001): -0.8

O=C(/C=C\n1cnc(-c2cc(C(F)(F)F)cc(C(F)(F)F)c2)n1)NNc1cnccn1 [Selinexor]
differential drug sensitivity score (ES-ZH009): -11.6 | differential drug sensitivity score (ES-ZH016 direct): 2.2 | differential drug sensitivity score (CDS-ZH001-2): 1.3 | differential drug sensitivity score (CDS-ZH002): -5.5 | differential drug sensitivity score (ES-ZH004): 13.5 | differential drug sensitivity score (ES-ZH008): 16.7 | differential drug sensitivity score (ES-ZH002): 6.2 | differential drug sensitivity score (ES-ZH016): -2.7 | differential drug sensitivity score (ES-ZH007): 3.2 | differential drug sensitivity score (ES-ZH001): -0.6 | differential drug sensitivity score (CDS-ZH003): -0.6 | differential drug sensitivity score (CDS-ZH002 direct): -3.6 | differential drug sensitivity score (CDS-ZH001): -1.3

O=C(/C=C\n1cnc(-c2cc(C(F)(F)F)cc(C(F)(F)F)c2)n1)NNc1ccccn1 [Verdinexor]
differential drug sensitivity score (ES-ZH009): -3.2 | differential drug sensitivity score (ES-ZH016 direct): 3.7 | differential drug sensitivity score (CDS-ZH001-2): 7.9 | differential drug sensitivity score (CDS-ZH002): -3.6 | differential drug sensitivity score (ES-ZH004): 8.4 | differential drug sensitivity score (ES-ZH008): 17.7 | differential drug sensitivity score (ES-ZH002): 11 | differential drug sensitivity score (ES-ZH016): 0.1 | differential drug sensitivity score (ES-ZH007): 1.5 | differential drug sensitivity score (ES-ZH001): 3.4 | differential drug sensitivity score (CDS-ZH003): -13 | differential drug sensitivity score (CDS-ZH002 direct): 0 | differential drug sensitivity score (CDS-ZH001): 0.6

C[C@H]1Oc2cc(cnc2N)-c2c(nn(C)c2C#N)CN(C)C(=O)c2ccc(F)cc21 [Lorlatinib]
differential drug sensitivity score (ES-ZH009): -2.4 | differential drug sensitivity score (ES-ZH016 direct): -1.1 | differential drug sensitivity score (CDS-ZH001-2): 6.9 | differential drug sensitivity score (CDS-ZH002): -1.4 | differential drug sensitivity score (ES-ZH004): -4.3 | differential drug sensitivity score (ES-ZH008): -3.5 | differential drug sensitivity score (ES-ZH002): 5.9 | differential drug sensitivity score (ES-ZH016): 1.2 | differential drug sensitivity score (ES-ZH007): -0.9 | differential drug sensitivity score (ES-ZH001): -1.4 | differential drug sensitivity score (CDS-ZH003): 1.5 | differential drug sensitivity score (CDS-ZH002 direct): 4.2 | differential drug sensitivity score (CDS-ZH001): 11.6

Cc1c2oc3c(C)ccc(C(=O)N[C@@H]4C(=O)N[C@H](C(C)C)C(=O)N5CCC[C@H]5C(=O)N(C)CC(=O)N(C)[C@@H](C(C)C)C(=O)O[C@@H]4C)c3nc-2c(C(=O)N[C@@H]2C(=O)N[C@H](C(C)C)C(=O)N3CCC[C@H]3C(=O)N(C)CC(=O)N(C)[C@@H](C(C)C)C(=O)O[C@@H]2C)c(N)c1=O [Dactinomycin]
differential drug sensitivity score (ES-ZH009): 12.8 | differential drug sensitivity score (ES-ZH016 direct): 9.9 | differential drug sensitivity score (CDS-ZH001-2): 11.9 | differential drug sensitivity score (CDS-ZH002): 11.4 | differential drug sensitivity score (ES-ZH004): 7.5 | differential drug sensitivity score (ES-ZH008): 12.5 | differential drug sensitivity score (ES-ZH002): 11.1 | differential drug sensitivity score (ES-ZH016): 11.8 | differential drug sensitivity score (ES-ZH007): 8.7 | differential drug sensitivity score (ES-ZH001): 9.7 | differential drug sensitivity score (CDS-ZH003): 12.7 | differential drug sensitivity score (CDS-ZH002 direct): 11.9 | differential drug sensitivity score (CDS-ZH001): 12.1

C=CC(=O)N1CCC[C@@H](n2nc(-c3ccc(Oc4ccccc4)cc3)c3c(N)ncnc32)C1 [Ibrutinib]
differential drug sensitivity score (ES-ZH009): -2.7 | differential drug sensitivity score (ES-ZH016 direct): 1.4 | differential drug sensitivity score (CDS-ZH001-2): -2.7 | differential drug sensitivity score (CDS-ZH002): -2.7 | differential drug sensitivity score (ES-ZH004): -2.5 | differential drug sensitivity score (ES-ZH008): -2.2 | differential drug sensitivity score (ES-ZH002): 0.4 | differential drug sensitivity score (ES-ZH016): -2.7 | differential drug sensitivity score (ES-ZH007): -2.7 | differential drug sensitivity score (ES-ZH001): -2.1 | differential drug sensitivity score (CDS-ZH003): -2.7 | differential drug sensitivity score (CDS-ZH002 direct): -2.1 | differential drug sensitivity score (CDS-ZH001): -2.7

CC(C)(C)c1cc(NC(=O)Nc2ccc(-c3cn4c(n3)sc3cc(OCCN5CCOCC5)ccc34)cc2)no1 [Quizartinib]
differential drug sensitivity score (ES-ZH009): 3.6 | differential drug sensitivity score (ES-ZH016 direct): 9.4 | differential drug sensitivity score (CDS-ZH001-2): 13.2 | differential drug sensitivity score (CDS-ZH002): -2.9 | differential drug sensitivity score (ES-ZH004): -0.8 | differential drug sensitivity score (ES-ZH008): 0.6 | differential drug sensitivity score (ES-ZH002): 1.6 | differential drug sensitivity score (ES-ZH016): -0.6 | differential drug sensitivity score (ES-ZH007): 2.4 | differential drug sensitivity score (ES-ZH001): -1.7 | differential drug sensitivity score (CDS-ZH003): -3.2 | differential drug sensitivity score (CDS-ZH002 direct): 8.3 | differential drug sensitivity score (CDS-ZH001): -2.8

O=C(Nc1ccncc1)c1cc([N+](=O)[O-])ccc1Cl
differential drug sensitivity score (ES-ZH009): -3.3 | differential drug sensitivity score (ES-ZH016 direct): -0.6 | differential drug sensitivity score (CDS-ZH001-2): -2.3 | differential drug sensitivity score (CDS-ZH002): -3 | differential drug sensitivity score (ES-ZH004): 11.7 | differential drug sensitivity score (ES-ZH008): 12.2 | differential drug sensitivity score (ES-ZH002): 14.8 | differential drug sensitivity score (ES-ZH016): -2.4 | differential drug sensitivity score (ES-ZH007): 0.8 | differential drug sensitivity score (ES-ZH001): 11.8 | differential drug sensitivity score (CDS-ZH003): -14.7 | differential drug sensitivity score (CDS-ZH002 direct): 5.4 | differential drug sensitivity score (CDS-ZH001): -0.7
